Reference: patent US20230279482A1, “COMPOSITIONS, METHODS AND USES FOR QUANTIFYING TRANSCRIPTION AND BIOSENSING OF SMALL MOLECULES USING A NOVEL TYPE VI CRISPR-CAS ASSAY” (THE REGENTS OF THE UNIVERSITY OF COLORADO, A BODY CORPORATE, priority 2020, published 2023)

Target: E. coli RNAP (Escherichia coli, UniProt P0A8T7+P0A8V2)
Test: Two-batch protocol: transcription in presence of fluoride, wash, then Cas13a detection
Format: biochemical
Conditions: fluoride riboswitch template, FIG. 6C
Method: In another exemplary method, two-batch methods included, 30 μL in vitro transcription reactions carried out as described above but without addition of Cas13a, crRNA, labeled RNA oligos, RNase inhibitor. Then, the reaction was washed three times with 500 μL ddH2O using an centrifugal filter (0.5 ml, 10 kDa cutoff). After concentrating the solution to approximately 20 μL, aliquots of 6 μL were taken and added to a 24 μL of a SHERLOCK reaction (described below).
The B. cereus crcB fluoride riboswitch is a regulatory switch that turns on expression of the fluoride efflux pump crcB via selectively binding fluoride over chloride. […] This may be explained in part by an observed inhibition of the assay at fluoride concentrations above 100 μM. To understand whether this effect stems from inhibition of the E. coli RNAP or inhibition of Cas13a, SHERLOCK reactions without RNAP were conducted at varying concentrations of sodium fluoride (FIG. 6A). […] To measure the response of the RNAP to fluoride, an exemplary two-batch protocol was developed (FIG. 6B) to first transcribe RNA in presence of fluoride, then wash out the fluoride and add the washed transcripts to Cas13a. […] The two-batch assay could also be used to wash out Cas13a-inhibiting compounds after transcription that would otherwise interfere with the assay.

E. coli RNAP, sequence (P0A8V2 whole entry): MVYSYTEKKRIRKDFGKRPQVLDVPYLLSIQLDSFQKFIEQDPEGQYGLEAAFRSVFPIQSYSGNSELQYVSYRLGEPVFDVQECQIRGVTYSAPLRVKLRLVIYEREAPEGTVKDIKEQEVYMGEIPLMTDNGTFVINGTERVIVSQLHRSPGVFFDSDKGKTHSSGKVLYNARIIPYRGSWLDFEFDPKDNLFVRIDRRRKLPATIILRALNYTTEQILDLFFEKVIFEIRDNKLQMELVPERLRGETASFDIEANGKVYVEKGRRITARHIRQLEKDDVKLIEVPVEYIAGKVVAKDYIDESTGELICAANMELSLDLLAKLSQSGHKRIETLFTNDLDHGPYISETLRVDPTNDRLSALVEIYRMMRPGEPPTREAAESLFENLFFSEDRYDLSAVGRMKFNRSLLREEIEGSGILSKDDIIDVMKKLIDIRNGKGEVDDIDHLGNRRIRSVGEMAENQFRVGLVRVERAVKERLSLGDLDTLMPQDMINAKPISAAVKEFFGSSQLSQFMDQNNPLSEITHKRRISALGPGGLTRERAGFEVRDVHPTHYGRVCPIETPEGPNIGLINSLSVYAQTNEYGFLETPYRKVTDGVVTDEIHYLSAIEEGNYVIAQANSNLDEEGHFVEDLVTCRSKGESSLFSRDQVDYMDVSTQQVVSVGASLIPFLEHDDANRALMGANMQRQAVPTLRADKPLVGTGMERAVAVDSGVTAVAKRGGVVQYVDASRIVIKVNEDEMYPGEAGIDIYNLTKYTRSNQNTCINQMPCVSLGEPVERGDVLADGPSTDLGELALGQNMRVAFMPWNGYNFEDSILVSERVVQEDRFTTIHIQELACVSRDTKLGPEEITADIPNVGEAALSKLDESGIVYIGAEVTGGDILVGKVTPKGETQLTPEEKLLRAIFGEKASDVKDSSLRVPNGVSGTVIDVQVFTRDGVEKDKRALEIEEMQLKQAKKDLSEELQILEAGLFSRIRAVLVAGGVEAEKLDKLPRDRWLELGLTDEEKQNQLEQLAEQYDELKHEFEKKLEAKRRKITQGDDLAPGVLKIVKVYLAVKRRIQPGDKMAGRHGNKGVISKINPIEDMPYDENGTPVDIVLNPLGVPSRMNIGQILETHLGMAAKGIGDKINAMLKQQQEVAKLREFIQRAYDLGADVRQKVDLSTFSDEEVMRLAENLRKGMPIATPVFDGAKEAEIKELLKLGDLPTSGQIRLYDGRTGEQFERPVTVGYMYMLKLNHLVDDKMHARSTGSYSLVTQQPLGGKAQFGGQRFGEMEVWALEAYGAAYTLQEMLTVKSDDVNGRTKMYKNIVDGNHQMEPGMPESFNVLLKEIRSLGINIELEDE
E. coli RNAP, sequence (P0A7Z4 whole entry, further chain): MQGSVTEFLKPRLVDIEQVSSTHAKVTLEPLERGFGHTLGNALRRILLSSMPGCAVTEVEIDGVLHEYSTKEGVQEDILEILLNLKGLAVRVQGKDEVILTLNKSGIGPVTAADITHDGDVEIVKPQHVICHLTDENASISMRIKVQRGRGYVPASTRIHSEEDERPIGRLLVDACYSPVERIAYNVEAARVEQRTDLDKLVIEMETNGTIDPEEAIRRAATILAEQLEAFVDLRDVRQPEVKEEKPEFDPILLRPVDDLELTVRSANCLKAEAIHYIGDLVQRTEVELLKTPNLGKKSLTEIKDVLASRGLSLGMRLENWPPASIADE
E. coli RNAP, sequence (P0A800 whole entry, further chain): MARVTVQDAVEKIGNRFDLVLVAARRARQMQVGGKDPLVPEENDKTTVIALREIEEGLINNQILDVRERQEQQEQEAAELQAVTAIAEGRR
E. coli RNAP, sequence (P0A8T7 whole entry): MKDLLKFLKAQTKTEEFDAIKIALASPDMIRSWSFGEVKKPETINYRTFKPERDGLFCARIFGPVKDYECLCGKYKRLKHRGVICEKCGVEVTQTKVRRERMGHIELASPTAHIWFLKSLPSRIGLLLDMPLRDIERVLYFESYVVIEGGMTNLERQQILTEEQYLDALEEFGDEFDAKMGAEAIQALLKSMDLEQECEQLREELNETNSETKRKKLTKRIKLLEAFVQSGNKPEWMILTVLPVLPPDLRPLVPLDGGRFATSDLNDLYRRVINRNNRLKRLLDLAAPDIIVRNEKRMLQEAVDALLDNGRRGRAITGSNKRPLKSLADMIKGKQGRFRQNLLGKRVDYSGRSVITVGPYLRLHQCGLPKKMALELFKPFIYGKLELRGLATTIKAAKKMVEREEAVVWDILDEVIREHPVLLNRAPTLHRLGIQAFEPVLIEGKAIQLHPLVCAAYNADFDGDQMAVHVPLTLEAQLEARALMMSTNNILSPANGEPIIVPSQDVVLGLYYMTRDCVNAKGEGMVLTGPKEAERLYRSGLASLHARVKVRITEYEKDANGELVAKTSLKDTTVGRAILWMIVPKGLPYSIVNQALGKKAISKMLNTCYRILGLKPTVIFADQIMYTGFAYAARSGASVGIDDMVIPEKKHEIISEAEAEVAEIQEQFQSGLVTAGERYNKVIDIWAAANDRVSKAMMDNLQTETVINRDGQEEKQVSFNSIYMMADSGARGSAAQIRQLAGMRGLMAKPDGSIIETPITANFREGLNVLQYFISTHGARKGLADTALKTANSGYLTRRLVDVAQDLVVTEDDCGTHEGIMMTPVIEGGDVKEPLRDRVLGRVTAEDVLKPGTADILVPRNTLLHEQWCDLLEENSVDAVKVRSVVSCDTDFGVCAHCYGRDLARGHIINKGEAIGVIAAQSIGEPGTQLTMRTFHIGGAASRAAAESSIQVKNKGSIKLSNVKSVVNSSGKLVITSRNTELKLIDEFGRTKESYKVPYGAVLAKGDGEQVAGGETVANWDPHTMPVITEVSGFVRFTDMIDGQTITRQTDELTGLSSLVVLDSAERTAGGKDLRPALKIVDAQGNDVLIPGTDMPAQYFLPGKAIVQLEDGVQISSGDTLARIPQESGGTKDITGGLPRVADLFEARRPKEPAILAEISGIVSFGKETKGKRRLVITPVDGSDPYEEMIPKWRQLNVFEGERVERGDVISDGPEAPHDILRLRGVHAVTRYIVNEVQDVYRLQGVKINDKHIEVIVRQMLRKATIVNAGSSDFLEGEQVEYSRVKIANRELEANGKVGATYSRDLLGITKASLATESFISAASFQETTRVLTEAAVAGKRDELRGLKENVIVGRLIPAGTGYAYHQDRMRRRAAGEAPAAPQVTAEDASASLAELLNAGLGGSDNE

[F-].[Na+] [fluoride, sodium fluoride]
concentration that drastically reduced transcriptional activity: ≥ 125 µM
concentration up to which transcription is induced in a linear manner: ≤ 100 µM
